In patent US12331033B2, “Inhibitors of SARM1” (Disarm Therapeutics, Inc., priority 2020, dated 2025):

biological target: SARM1 (ARM-SAM-TIR) (Homo sapiens (Human), UniProt Q6SZW1); assay: ARM-SAM-TIR SARM1 IC50 assay (NADase activity, NAD+ cleavage, RapidFire MS); type: biochemical; conditions: ARM-SAM-TIR lysate 5 μg/mL, 2 h pre-incubation, 5 μM NAD+, 2 hr room temperature
Experimental: This Example describes an assay of ARM-SAM-TIR NADase activity and use of this assay to measure the efficacy of compounds of Formula I or Formula I′ to block SARM1 mediated NAD+ cleavage. This assay was optimized in such a way as to characterize the efficacy of the compounds in Formula I or Formula I′ to inhibit SARM1 activity and to calculate an IC50 value for each compound. This assay makes use of full length SARM1, which encompasses the ARM, SAM and TIR domains.
NRK1-HEK293T cells were seeded onto 150 cm^2 plates at 20×10^6 cells per plate. The next day, the cells were transfected with 15 μg ARM-SAM-TIR expression plasmid, SEQ ID NO: 1.
The cultures were supplemented with 1 mM NR at time of transfection to minimize toxicity from ARM-SAM-TIR overexpression. Forty-eight hours after transfection, cells were harvested, pelleted by centrifugation at 1,000 rpm (Sorvall ST 16R centrifuge, Thermo Fisher), and washed once with cold PBS (0.01 M phosphate buffered saline NaCl 0.138 M; KCl 0.0027 M; pH 7.4). The cells were resuspended in PBS with protease inhibitors (cOmplete™ protease inhibitor cocktail, Roche product #11873580001) and cell lysates were prepared by sonication (Branson Sonifer 450, output=3, 20 episodes of stroke). The lysates were centrifuged (12,000×g for 10 min at 4° C.) to remove cell debris and the supernatants (containing ARM-SAM-TIR protein) were stored at −80° C. for later use in the in vitro ARM-SAM-TIR NADase assay (see below). Protein concentration was determined by the Bicinchoninic (BCA) method and used to normalize lysate concentrations.
The enzymatic assay was performed in a 384-well polypropylene plate in Dulbecco's PBS buffer in a final assay volume of 20 μL. ARM-SAM-TIR lysate with a final concentration of 5 μg/mL was pre-incubated with the respective compound at 1% DMSO final assay concentration over 2 h at room temperature. The reaction was initiated by addition of 5 μM final assay concentration of NAD+ as substrate. After a 2 hr room temperature incubation, the reaction was terminated with 40 μL of stop solution of 7.5% trichloroactetic acid in acetonitrile. The NAD+ and ADPR concentrations were analyzed by a RapidFire High Throughput Mass Spectrometry System (Agilent Technologies, Santa Clara, Calif.) using an API4000 triple quadrupole mass spectrometer (AB Sciex Framingham, Mass.).

SARM1 (ARM-SAM-TIR), sequence (Q6SZW1 other isoform, or with tags, fused parts or gaps): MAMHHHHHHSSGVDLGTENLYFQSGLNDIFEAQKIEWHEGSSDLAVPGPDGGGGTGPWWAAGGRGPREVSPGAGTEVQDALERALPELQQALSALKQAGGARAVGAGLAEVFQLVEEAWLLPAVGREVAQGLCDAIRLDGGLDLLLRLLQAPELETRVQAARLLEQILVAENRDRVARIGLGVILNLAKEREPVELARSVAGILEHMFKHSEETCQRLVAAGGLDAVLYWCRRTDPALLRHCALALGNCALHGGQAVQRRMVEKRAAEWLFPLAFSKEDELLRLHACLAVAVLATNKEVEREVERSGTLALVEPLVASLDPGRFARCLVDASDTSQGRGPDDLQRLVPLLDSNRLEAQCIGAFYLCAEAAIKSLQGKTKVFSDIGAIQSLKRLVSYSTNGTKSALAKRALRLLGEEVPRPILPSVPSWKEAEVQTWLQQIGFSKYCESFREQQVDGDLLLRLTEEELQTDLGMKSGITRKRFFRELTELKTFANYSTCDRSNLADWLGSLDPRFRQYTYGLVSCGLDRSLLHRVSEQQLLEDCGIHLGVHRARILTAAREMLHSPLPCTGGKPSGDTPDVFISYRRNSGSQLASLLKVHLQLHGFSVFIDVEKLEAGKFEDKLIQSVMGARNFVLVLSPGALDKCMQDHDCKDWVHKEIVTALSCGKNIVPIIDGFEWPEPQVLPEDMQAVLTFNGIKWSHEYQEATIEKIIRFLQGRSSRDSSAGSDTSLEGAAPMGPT

Row | Compound | IC50 [µM]
1 | Cc1c(-c2ccncc2)n[nH]c1NC(=O)CCc1ccc(Cl)c(F)c1 [Example 188] | < 5
2 | O=C(CCc1ccc2[nH]ncc2c1)Nc1nnc(-c2ccncc2)[nH]1 [Example 49] | > 30
3 | Cc1cnccc1-c1n[nH]c(NC(=O)CCc2ccc(Cl)nc2)c1C [Example 322] | < 5
4 | O=C(CCc1ccc(Cl)s1)Nc1cc(-c2ccnnc2)[nH]n1 [Example 24] | < 5
5 | O=C(CC1CCc2ccccc21)Nc1nnc(-c2ccncc2)[nH]1 (stereo not shown) [Example 117] | < 5
6 | O=C(CC1CCOc2nc(Cl)ccc21)Nc1nnc(-c2ccncc2)[nH]1 (stereo not shown) [Example 179] | < 5
7 | O=C(C[C@@H]1CCOc2cc(Cl)ccc21)Nc1nnc(-c2ccncc2)[nH]1 [Example 209] | < 5
8 | O=C(CC1CNc2cc(Cl)ccc21)Nc1nnc(-c2ccncc2)[nH]1 (stereo not shown) [Example 283] | < 5
9 | O=C(CCc1ccc(Cl)cc1Cl)Nc1nnc(-c2ccncc2)[nH]1 [Example 36] | < 5
10 | O=C(CCc1ccc(Cl)cc1)Nc1nnc(-c2ccncc2)[nH]1 [Example 136] | < 5
11 | O=C(Nc1nnc(-c2ccncc2)[nH]1)N1CCc2nc(Cl)ccc2C1 [Example 166] | < 5
12 | O=C(CNc1ccccc1)Nc1nnc(-c2ccncc2)[nH]1 [Example 69] | 5 to 15
13 | Cc1c(-c2ccncc2)n[nH]c1NC(=O)COc1ccc(C#N)cc1 [Example 253] | 5 to 15
14 | Cc1c(-c2ccnnc2)n[nH]c1NC(=O)C[C@@H]1CCOc2cc(Cl)ccc21 [Example 279] | < 5
15 | O=C(CCc1ccncc1)Nc1nnc(-c2ccncc2)[nH]1 [Example 112] | 15 to 30
16 | N#Cc1ccc(CCC(=O)Nc2nnc(-c3ccncc3)[nH]2)cc1 [Example 119] | < 5
17 | N#Cc1c(-c2ccncc2)n[nH]c1NC(=O)CCc1ccc(Cl)nc1 [Example 195] | < 5
18 | N#Cc1ccc(CC(=O)Nc2nnc(-c3ccncc3)[nH]2)cc1 [Example 79] | 5 to 15
19 | Cc1c(-c2ccncc2F)n[nH]c1NC(=O)CCc1ccc(Cl)cc1 [Example 313] | < 5

Row | Compound | IC50 [µM]
20 | Cc1ccc(OCC(=O)Nc2[nH]nc(-c3ccncc3)c2C)cc1 [Example 257] | 5 to 15
21 | CC1(c2c(-c3ccncc3)n[nH]c2NC(=O)CCc2ccc(Cl)nc2)CC1 [Example 310] | < 5
22 | CCc1c(-c2ccncc2)n[nH]c1NC(=O)CN1CCCc2sccc2C1=O [Example 256] | 5 to 15
23 | O=C(CC1CCOc2cc(Cl)ccc21)Nc1cc(-c2ccncc2)n[nH]1 (stereo not shown) [Example 172] | < 5
24 | O=C(CCc1ccc(C(F)(F)F)cn1)Nc1nnc(-c2ccncc2)[nH]1 [Example 85] | 5 to 15
25 | Nc1cc(-c2n[nH]c(NC(=O)CCc3ccc(Cl)cc3)n2)ccn1 [Example 43] | < 5
26 | O=C(Nc1nnc(-c2ccncc2)[nH]1)N[C@@H]1CCOc2cc(Cl)ncc21 [Example 276] | 5 to 15
27 | CCc1ccc(CCC(=O)Nc2nc(-c3ccncc3)n[nH]2)cc1 [Example 44] | < 5
28 | Cc1c(-c2ccncc2)n[nH]c1NC(=O)CCc1ccc(Cl)nc1 [Example 27] | < 5
29 | O=C(CCc1ccc(F)cc1)Nc1cc(-c2ccncc2)n[nH]1 [Example 37] | < 5
30 | Cc1ccc(CCC(=O)Nc2[nH]nc(-c3ccncc3F)c2C)cn1 [Example 307] | < 5
31 | O=C(CCc1ccccc1)Nc1nnc(-c2ccncc2)[nH]1 [Example 146] | < 5
32 | O=C(CCc1ccc(Cl)nc1)Nc1nnc(-c2ccncc2)[nH]1 [Example 84] | < 5
33 | Cc1c(-c2ccncc2)n[nH]c1NC(=O)CSc1ccc(Cl)cc1 [Example 292] | < 5
34 | O=C(CCc1ccc(Cl)nc1)Nc1[nH]nc(-c2ccncc2)c1C1CCC1 [Example 204] | 5 to 15
35 | O=C(CCc1ccc(Cl)cc1)Nc1[nH]nc(-c2ccncc2)c1C1CCC1 [Example 203] | < 5
36 | O=C(NCc1ccc(Cl)nc1)Nc1cc(-c2ccncc2)n[nH]1 [Example 174] | < 5
37 | O=C(C[C@H]1CCc2ccccc21)Nc1nnc(-c2ccncc2)[nH]1 [Example 68] | 5 to 15
